Measured values as given in patent US9168301B2 (NATIONAL TSING HUA UNIVERSITY, priority 2011, dated 2015).
Read-outs that look alike come from different tables or passages of the source.

Assays:
[1] = 4 hours after the injection
Description: Before measuring boron concentration of a sample, it needs to undergo microwave digestion first. A sample was initially placed into a Teflon high-pressure digestion vessel, then added with 3 mL of concentrated nitric acid (14N, 65%) and 0.5 mL of hydrogen peroxide (30-35%), and the vessel was sealed before placing the vessel into a microwave digestion system (MLS 1200 Milestone, Italia) for sample decomposition. […] The sample subsequently turned into a clear solution after complete digestion. After diluting the sample with deionized water, an Inductively Coupled Plasma Atomic Emission Spectrometer (ICP-AES, OPTIMA 2000 DV, PerkinElmer Instruments) was used to measure the boron concentration of the sample. For the conditions of the analysis, the temperature of argon plasma was set at 6000-7000 K; the analytical wavelength was set at 249.773 nm, and the liquid uptake rate was set at approximately 2 mL/min; the operating voltage after the formation of plasma was set at 40 V.

[2] = Description: The serum biochemical parameters of the rats were monitored by drawing blood samples from the rats' tail veins once before the tumor implantation, and weekly after the tumor implantation. When a rat was sacrificed, a blood sample was also drawn from its heart. Whole blood was collected from a rat and held in a serum separation tube (Vacationer, Franklin Lakes, N.J., USA), then centrifuged for 15 minutes at 3000 rpm, followed by preserving the serum upper clean solution by freezing. Afterwards, the College of Veterinary Medicine of National Chung Hsing University was commissioned with the task of analyzing the serum biochemical parameters of this solution, in which a serum biochemical analyzer (Chiron Diagnostics Corporation, Oberlin, Ohio, USA) was utilized to analyze concentrations of the serum enzymes related to liver and kidney functions.
[3] = liver tumor-bearing SD rats, 25 mg B/kg bw one-shot i.v., n = 12
[4] = tested on: N1-S1 rat hepatoma liver tumor
Description: The implantation of tumor cells: before anesthesia, the SD rats were subcutaneously injected with 0.1 mg/kg bw of Atropine, so as to inhibit the secretion of respiratory tract and salivary gland caused by anesthetics, and prevent bradycardia resulted from the overactivity of vagus nerve. After administering Atropine for 10-15 minutes, the rats were intraperitoneally injected with 20-40 mg/kg bw of Zoletil 50 and 10 mg/kg bw of Xylazine to anesthetize and sedate the animals. After the anesthetia, the subxiphoid incision was done to allow for tumor implantation. A surgical area on the rat was shaved and disinfected with 75% alcohol and iodine, and then a 3-cm incision was made along the midline of thin layer; the muscle layer was elevated to make an opening smaller than the skin layer, and both sides of the rat's abdomen was gently pressed to reveal the liver. A 29 G syringe was loaded with the N1-S1 tumor cell suspension in advance, and then used to slowly inject the suspension into a hepatic lobe of the rat; each of the rats were injected with 6×10^6 cell/0.1 mL of the suspension. After the implantation, the peritoneum was stitched back with an absorbable suture, before using a nylon suture to stitch back the skin layer. The operated rats were then released back into the cage, and their activities and survival were continuously monitored.
A commercial ultrasound scanner (TOSHIBA Xario) was used to scan the liver tumors, and a linear probe (PLT-1204BT) was used because it imparts better resolution; the frequency of the scanning was set at 14 MHz. After the anesthesia, the experimental animals were subjected to B-mode ultrasound imaging, so as to confirm whether the induction and growth of the tumors. […] Sagittal sections and transverse sections were obtained for the experimental animals before the BNCT treatment, and on the 10th, 30th, 60th, and 80th day after the BNCT treatment, in order to estimate the size of the tumors, and also combined Doppler mode with 3D imaging to evaluate the distribution of vasculature in the tumors, as well as the relative position of the tumors in the abdominal cavities.
The experimental animals were divided into three groups; a normal group (which was made up of normal rats), a tumor comparison group (in which the rats received the implantation of tumor cells but not the BNCT treatment), and a BNCT treatment group; the BNCT treatment group was divided into subgroups of rats that received different physical doses of irradiation.
The rats implanted with the N1-S1 tumor cells were subjected to the BNCT treatment on the 17th day after the implantation. […] At 15 minutes before the irradiation, the rats were injected with Atropine and Zoletil to allow for longer anesthesia. Each of the rats were placed on a fixing frame with its tumor-bearing area close to the beam aperture of the Tsing Hua Open-pool Reactor (THOR), and then different duration of neutron irradiation was performed under a specific neutron flux, in order to acquire a specific irradiation dose. After the irradiation, an on-line neutron monitoring system for the THOR was used to confirm the actual irradiation dose.
The tumor was scanned by using a commercial ultrasound scanner (TOSHIBA Xario), and the scanning frequency was set at 14 MHz. […] Ultrasound imaging was used to track growths or disappearances of the tumors, as well as changes in the blood vessels surrounding the tumors within 80 days of the BNCT treatment. The 2D mode of ultrasound imaging was employed to confirm the status of a tumor, and sagittal and transverse sections were obtained to estimate the size of the tumor, and the Doppler mode was combined with 3D imaging to evaluate the distribution of vasculature in the tumor, as well as in surroundings thereof.

[5] = injection dose 60 mg of 10B stable isotope per kilogram of human body weight; cited from earlier work
[6] = tested on: GS-9L, U-343MGa, HeLa, V79, and B16 cells; settings: cited from earlier work
[7] = 4 days after the BNCT treatment
[8] = G2, day −1 (before BNCT, baseline)
[9] = G3, day −1 (before BNCT, baseline)

OB(O)O [boric acid]
difference between the boron concentrations in the tumors and the normal liver cells [1]: insignificant
histopathological section of the testis [2, 7]: did not show any abnormalities
change of GPT after the BNCT treatment ([2]; BNCT treatment group): returned to normal
change in BUN (kidney function) ([2]; BNCT treatment group, one month after the BNCT treatment): did not show any meaningful changes
clinical signs after BNCT ([2]; BNCT treatment groups): slight diarrhea and appetite loss
lowest body weight relative to the initial weight ([2]; G1 (11.18 Gy), 8 days after the irradiation): 78%
GOT (AST), serum ([2]; G1 (11.18 Gy), day −1 (before BNCT, baseline), normal 83-118): 250 ± 148 U/L
BUN, serum ([2]; G1, day 11 after BNCT): 15 ± 7 mg/dL
GOT (AST), serum ([2]; G1, day 11 after BNCT): 202 ± 127 U/L
GPT (ALT), serum ([2]; G1, day 11 after BNCT): 39 ± 13 U/L
BUN, serum ([2]; G1, day 30 after BNCT): 14 ± 1 mg/dL
GOT (AST), serum ([2]; G1, day 30 after BNCT): 111 ± 29 U/L
GPT (ALT), serum ([2]; G1, day 30 after BNCT): 50 ± 5 U/L
BUN, serum ([2]; G1, day 80 after BNCT): 17 ± 3 mg/dL
GOT (AST), serum ([2]; G1, day 80 after BNCT): 127 ± 8 U/L
GPT (ALT), serum ([2]; G1, day 80 after BNCT): 54 ± 4 U/L
BUN, serum ([2]; G1, day −1 (before BNCT, baseline), normal 11-17): 16 ± 2 mg/dL
GPT (ALT), serum ([2]; G1, day −1 (before BNCT, baseline), normal 35-47): 54 ± 7 U/L
lowest body weight relative to the initial weight ([2]; G2 (7.97 Gy), 4 days after the irradiation): 89%
GOT (AST), serum ([2]; G2 (7.97 Gy), day −1 (before BNCT, baseline)): 271 ± 39 U/L
BUN, serum ([2]; G2, day 11 after BNCT): 13 ± 2 mg/dL
GOT (AST), serum ([2]; G2, day 11 after BNCT): 204 ± 9 U/L
GPT (ALT), serum ([2]; G2, day 11 after BNCT): 45 ± 15 U/L
BUN, serum ([2]; G2, day 30 after BNCT): 17 ± 5 mg/dL
GOT (AST), serum ([2]; G2, day 30 after BNCT): 144 ± 20 U/L
GPT (ALT), serum ([2]; G2, day 30 after BNCT): 57 ± 3 U/L
BUN, serum ([2]; G2, day 80 after BNCT): 16 ± 2 mg/dL
GOT (AST), serum ([2]; G2, day 80 after BNCT): 116 ± 8 U/L
GPT (ALT), serum ([2]; G2, day 80 after BNCT): 62 ± 13 U/L
BUN, serum [2, 8]: 12 ± 1 mg/dL
GPT (ALT), serum [2, 8]: 56 ± 9 U/L
lowest body weight relative to the initial weight ([2]; G3 (5.61 Gy), 3 days after the irradiation): 92%
GOT (AST), serum ([2]; G3 (5.61 Gy), day −1 (before BNCT, baseline)): 168 ± 19 U/L
BUN, serum ([2]; G3, day 11 after BNCT): 15 ± 3 mg/dL
GOT (AST), serum ([2]; G3, day 11 after BNCT): 180 ± 8 U/L
GPT (ALT), serum ([2]; G3, day 11 after BNCT): 53 ± 4 U/L
BUN, serum ([2]; G3, day 30 after BNCT): 14 ± 3 mg/dL
GOT (AST), serum ([2]; G3, day 30 after BNCT): 153 ± 3 U/L
GPT (ALT), serum ([2]; G3, day 30 after BNCT): 55 ± 6 U/L
BUN, serum ([2]; G3, day 80 after BNCT): 18 ± 3 mg/dL
GOT (AST), serum ([2]; G3, day 80 after BNCT): 133 ± 41 U/L
GPT (ALT), serum ([2]; G3, day 80 after BNCT): 58 ± 12 U/L
BUN, serum [2, 9]: 13 ± 1 mg/dL
GPT (ALT), serum [2, 9]: 50 ± 10 U/L
change of liver enzyme GOT after the BNCT treatment ([2]; all three subgroups of the BNCT treatment group): decreased rapidly
radiation damage in pancreases and spleens, tissue histopathological sections ([2]; liver tumor-bearing rats after BNCT with 10B-boric acid): did not show radiation damage
radiation effect in the testis ([2]; one month after the BNCT irradiation, degree related to irradiation dose): atrophy of seminiferous tubules
testis effect ([2]; only rats that received 11.18 Gy (G1)): clear testicular atrophy
Cmax, highest drug concentration in blood [3]: 104.6 ± 36.23 ppm
reduction of tumor size ([4]; 30th day after BNCT treatment): approximately 90%
histopathology of tumor cells, high magnification [4, 7]: shrunk in size, become hollow, broken down and dead
tumor shrinkage ratio (ultrasound) ([4]; G1 (11.18 Gy), 30 days after BNCT): 0.94 ± 0.01
tumor shrinkage ratio (ultrasound) ([4]; G1 (11.18 Gy), 60 days after BNCT): 0.94 ± 0.02
tumor shrinkage ratio (ultrasound) ([4]; G1 (11.18 Gy), 80 days after BNCT): 0.95 ± 0.02
tumor shrinkage ratio (ultrasound) ([4]; G1 (tumor physical dose 11.18 Gy), boric acid 25 mg 10B/kg i.v., 11 days after BNCT, 0 = initial size, 1 = vanished): 0.64 ± 0.07
distribution of blood flow surrounding the tumor (Doppler imaging) ([4]; G1, G2 and G3, 8th, 12th, 18th day after BNCT): gradually decreased until it could no longer be detected
tumor shrinkage ratio (ultrasound) ([4]; G2 (7.97 Gy), 30 days after BNCT): 0.89 ± 0.05
tumor shrinkage ratio (ultrasound) ([4]; G2 (7.97 Gy), 60 days after BNCT): 0.86 ± 0.07
tumor shrinkage ratio (ultrasound) ([4]; G2 (7.97 Gy), 80 days after BNCT): 0.91 ± 0.05
tumor shrinkage ratio (ultrasound) ([4]; G2 (tumor physical dose 7.97 Gy), 11 days after BNCT): 0.62 ± 0.1
tumor shrinkage ratio (ultrasound) ([4]; G3 (5.61 Gy), 30 days after BNCT): 0.77 ± 0.06
tumor shrinkage ratio (ultrasound) ([4]; G3 (5.61 Gy), 60 days after BNCT): 0.83 ± 0.08
tumor shrinkage ratio (ultrasound) ([4]; G3 (5.61 Gy), 80 days after BNCT): 0.87 ± 0.04
tumor shrinkage ratio (ultrasound) ([4]; G3 (tumor physical dose 5.61 Gy), 11 days after BNCT): 0.48 ± 0.42
liver cancer in the rats after BNCT with 10B-boric acid ([4]; liver tumor-bearing rats): completely disappeared
smallest tumor, size relative to the original size ([4]; one month after the BNCT treatment): 6%
tumor size relative to the original tumor size ([4]; three subgroups G1-G3, one month after the BNCT treatment): less than or equal to 22%
new growth or recurrence of the tumors (ultrasound tracking) ([4]; up to 80 days after the BNCT treatment): did not reveal any new growth or recurrence of the tumors
adverse effect of injected boric acid [5]: no permanent adverse effect
accumulation efficiency in the cells ([6]; previous studies): 1
ratio of boron concentrations intracellularly and extracellularly ([6]; simple or passive diffusion): 1
